The source of these data is patent US10835470B2, “Cosmetics composition containing ginsenoside as active ingredient” (AMOREPACIFIC CORPORATION, priority 2015, dated 2020).

Where only a bound is given, the exact number is not on record here.

The test system of experiment [1] is tyrosinase enzyme extracted from mushrooms. As to the kind of experiment: Tyrosinase inhibitory effect, absorbance at 475 nm. Format: biochemical. Particulars: mushroom tyrosinase, tyrosine substrate, 37° C., concentration of test substance not given. The procedure: The tyrosinase enzyme was extracted from mushrooms and obtained from Sigma (SIGMA). First, tyrosine as a substrate was dissolved in distilled water to prepare 0.3 mg/ml of a solution. The solution was placed by 1.0 ml in a test tube, and then 1.0 ml of potassium phosphate buffer solution (concentration 0.1 mol, PH 6.8) and 0.7 ml of distilled water were added to prepare a reaction solution.
0.2 ml of the test substance was placed in the reaction solution, and then the mixture was allowed to react in a thermostatic chamber at 37° C. for 10 minutes. At this time, as a negative control group (no addition), that obtained by adding 0.2 ml of only solvent in place of each test substance was prepared. As a positive control group, ascorbic acid was used. 2500 unit/ml of tyrosinase solution was added by 0.1 ml to the reaction solution, and the mixture was reacted again in a thermostatic chamber at 37° C. for 10 minutes. The test tube containing this reaction solution was placed in ice water and quenched to stop the reaction. Absorbance at a wavelength of 475 nm was measured with a photoelectron spectrometer. Each tyrosinase inhibitory effect was calculated by Mathematical Equation 1 below. The tests were conducted on ginsenoside Rd and compound O, respectively. Tyrosinase inhibition rate (%)=100−[{(Reaction absorbance of test substance)/(Reaction absorbance of negative control group)}×100] […]

In a further experiment the test system is Pseudomonas aeruginosa. As to the kind of experiment: Antibacterial activity, MIC by two-fold dilution. Particulars: 32° C., 48 hours. It is filed as cell-based. The procedure:
(§1) Antibacterial experiments were conducted to evaluate the antibacterial activity of ginsenoside Rd and Compound O. Specific experimental methods are as follows. The strains of Staphylococcus aureus, Escherichia coli and Pseudomonas aeruginosa used in the experiment were cultured in Trypticase Soy Broth, and the strains of Candida albicans, Aspergillus niger were cultured in Sabouraud Dextrose Broth medium. A diluted solution in which the culture solution is diluted 1/100 (Candida albicans strain 1/10) in each culture medium was used as a test strain solution. A spore suspension of Aspergillus niger (2×10^8 cfu/ml) was used as a test strain solution. A solution prepared by adding 0.15 ml of the test strain solution to 15 ml of each medium and thoroughly mixing the same was used as a diluted solution. 96 Deep well plate was placed by 16 μl ginsenoside Rd 10 ppm to 1 row and placed by 184 μl a diluted solution. The diluted solution was placed by 100 μl in the rest of the wells. The mixed solution of 1 row was thoroughly mixed and 100 μl was taken and placed in 2 row and thoroughly mixed. 100 μl was taken again and placed in 3 row. A two-fold dilution was carried out in this manner. Staphylococcus aureus, Escherichia coli and Pseudomonas aeruginosa were cultured in a thermostatic chamber at 32° C., and Candida albicans and Aspergillus niger were cultured in a thermostatic chamber at 25° C. After 48 hours, the growth of strains was checked by the degree of suspension and microscope, and the Minimum Inhibitory Concentration (MIC) value was determined. The ginsenoside Rd was replaced with Compound O, and the test was carried out in the same process.

The next experiment has as its system Candida albicans. As to the kind of experiment: Antibacterial activity, MIC by two-fold dilution. It is filed as cell-based. The conditions noted are these: 25° C., 48 hours. The procedure:
as §1

Another experiment has as its system Escherichia coli. In words: Antibacterial activity, MIC by two-fold dilution. It is filed as cell-based. Particulars: 32° C., 48 hours. Here is the method: as §1
A further experiment relates to Staphylococcus aureus. In words: Antibacterial activity, MIC by two-fold dilution. It is filed as cell-based. Particulars: 32° C., 48 hours. The procedure:
as §1

The next experiment deals with Aspergillus niger. In words: Antibacterial activity, MIC by two-fold dilution. Particulars: 25° C., 48 hours. It is filed as cell-based. The procedure:
as §1

The test system of a further experiment is B16/F10 melanoma cells. As to the kind of experiment: Inhibition of melanin production in B16/F10 melanoma cells. It is filed as cell-based, mouse. Particulars: 72 hours, concentration not given. From the text: The B16/F10 melanoma used in this test example is a cell line derived from a mouse and is a cancer cell caused by malignant alteration of a cell secreting a black pigment called melanin. The extent to which and melanin production was decreased by treating the test substance during artificial cultivation of this cell was compared and evaluated. The B16/F10 melanoma used in this test example was purchased from the Korean Cell Line Bank (KCLB No: 8008) and used. Measurement of melanin biosynthesis inhibitory effect of B16/F10 melanoma was carried out as follows. B16/F10 melanoma was dispensed in a 6-well plate (5×10^5/well) and cultured in DMEM (Dulbecco's Modified Eagle's Medium) containing 10% FBS (fetal bovine serum) for about 24 hours at 37° C. in a 5% CO2 incubator (MCO-20 AIC, Sanyo). The test substance was added to a new DMEM medium not containing FBS and allowed to stand for 72 hours. […] Absorbance was measured at 405 nm using an ELISA reader (DIbiotech, Korea). […] In comparison with the melanin content in the control group, the degree of inhibition of melanin production of each test substance was measured. […] Melanin production inhibition rate was calculated according to Mathematical Equation 2 below, and the results are shown in Table 4. Melanin production inhibition rate (%)=100−[{(Absorbance of test substance)/(Absorbance of control group)}×100] […]

Experiment [2] deals with keratinocytes (cell line: HaCaT). In words: Inhibition of UVB-induced reactive oxygen species (ROS) generation, DCF-DA fluorescence. It is filed as cell-based. The procedure:
5×10^4 keratinocytes (cell line: HaCaT; obtained from: ATCC) was placed in each well of a 24-well plate and allowed to adhere for 24 hours. After 16 hours, ginsenoside Rd was treated with 1%. […] After 2 hours, the culture solution was removed, and 100 μl of phosphate buffer saline (PBS) was added to each well. The keratinocytes were irradiated with ultraviolet rays of 30 mJ/cm^2 using an ultraviolet B (UVB) lamp (Model: […], UV B 15 W, Sankyo Denki, Japan), and then PBS was taken out and 200 μl of keratinocyte culture solution was added to each well. Herein, ginsenoside Rd was again treated and the amount of reactive oxygen species increased by ultraviolet stimulation was determined for each fixed period of time. The amount of ROS was determined by referring to Tan's method for measuring the fluorescence of DCF-DA (dichlorofluorescin diacetate) oxidized by ROS (Tan et al., 1998, J. Cell Biol. Vol. 141, pp 1423-1432). The ginsenoside Rd was replaced with Compound O, and the test was carried out in the same process.

On to `O=C1O[C@H]([C@@H](O)CO)C(O)=C1O` [Ascorbic acid, reference compound], for which the “Tyrosinase inhibition rate (%)” value in experiment [1] is given as 56%.
Consider `CC(C)=CCC[C@](C)(O[C@@H]1O[C@H](CO)[C@@H](O)[C@H](O)[C@H]1O)[C@H]1CC[C@]2(C)[C@@H]1[C@H](O)C[C@@H]1[C@@]3(C)CC[C@H](O[C@@H]4O[C@H](CO)[C@@H](O)[C@H](O)[C@H]4O[C@@H]4O[C@H](CO)[C@@H](O)[C@H](O)[C@H]4O)C(C)(C)[C@@H]3CC[C@]12C` [Ginsenoside Rd], for which the “Minimum Inhibitory Concentration (MIC)” value with Pseudomonas aeruginosa was 0.25%; in the experiment with Candida albicans, >4%; in the experiment on Escherichia coli, 0.191%; with Staphylococcus aureus, 0.07%; with Aspergillus niger it was >3%. Moreover, the “Melanin production inhibition rate (%)” value in the experiment on B16/F10 melanoma cells is listed as 67%. The “Amount of ROS, ratio to vehicle control” value in experiment [2] (0 hr after irradiation of UVB 30 mJ/cm^2, test substance treated with 1%) worked out at 100; in experiment [2] (2 hr after irradiation of UVB 30 mJ/cm^2, test substance treated with 1%), 251; in experiment [2] (3 hr after irradiation of UVB 30 mJ/cm^2, test substance treated with 1%), 286. The “Tyrosinase inhibition rate (%)” value in experiment [1] came out at 68%.
For the compound `O=c1cc(CO)occ1O` [Kojic acid, reference compound], the “Melanin production inhibition rate (%)” value in the experiment on B16/F10 melanoma cells came out at 49%.
